Data on five compounds can be found in ChEMBL document CHEMBL1146853, “Proton dissociation is important to understanding structure-activity relationships of gallic acid antioxidants” (Bioorg Med Chem Lett, 2006).

Molecules are shown by their SMILES.

The test system of assay [1] is Radical scavenging activity. Kind of assay: DPPH radical scavenging activity in ethanol solution. Format: functional.
The test system of assay [2] is Radical scavenging activity. Nature of the assay: DPPH radical scavenging activity in liposome. Type of assay: functional. On the technique in general: DPPH is a stable violet radical that fades when it is reduced.

As usually defined, the IC50 is the concentration needed to halve the response being measured. For the compound `COc1cc(C(=O)O)cc(O)c1OC`, the IC50 result in assay [1] and in assay [2] was “Not Active” throughout.

With `COc1cc(C(=O)O)cc(OC)c1OC` [3,4,5-TRIMETHOXYBENZOIC ACID], the IC50 entry in assay [1] and in assay [2] was “Not Active” in each case.

In the case of `COC(=O)c1cc(O)c(O)c(O)c1` [GALLIC ACID METHYL ESTER], the half-inhibitory concentration (IC50) is 7.2 µM in assay [1] (read-out: IC50) and 8.4 µM in assay [2] (read-out: IC50).

For the compound `O=C(O)c1cc(O)c(O)c(O)c1` [GALLIC ACID], the figures for the IC50 in assay [1] (read-out: IC50) and in assay [2] (read-out: IC50) were 6 µM and 7.3 µM, respectively.

Turning to `COc1cc(C(=O)O)cc(OC)c1O` [SYRINGIC ACID], the IC50 in assay [1] (read-out: IC50) worked out at 7.3 µM; in assay [2] (read-out: IC50), 7.4 µM.
